Key:
[1] = system: Pancreatic Cancer Cells (PaCa2); assay: Real-time PCR Apoptosis Array; type: cell-based
Experimental: Experiments were carried out essentially as described above.

[2] = system: HepG2 (liver cancer) cells; assay: Real-time PCR Angiogenesis Array; type: cell-based; settings: 100 μM Q10, genes: ANGPTL3, ANGPTL4, CXCL1, CXCL3, CXCL5, ENG, ID3, MMP2, TIMP3
Experimental: The treatment was initiated on 1×10^5 cells per well, following the procedure utilized in the PaCa2 cells (above Examples 9-11). However, the total amount of RNA that was extracted from these samples was lower than expected. Reverse transcription is normally done using 1 μg of total RNA (determined by measurement at 260 nm). The maximum volume that can be used per reverse transcription is 8 μl.

[3] = system: Pyruvate Kinase M2 (PKM2); assay: Western blot, Pyruvate Kinase M2 levels; type: cell-based, human; settings: cancer cells tested
Experimental: The samples were processed and run on a 4-12% Bis-Tris Novex NuPAGE gel as described above. The gels were run, transferred and stained essentially as described above.
The lactate dehydrogenase blots were stripped by incubating for 30 minutes with methanol, followed by two 10 minute washes with TBS-T, then 30 minutes of incubation with Stripping buffer at 50 deg C., and followed by two washes with 100 ml or more of TBS-T for 30′ each. The 2 blots were scanned in laser scanner to check for complete stripping. The blots were activated with methanol for 5 seconds, washed with water for 5 minutes, and TBST for 15 minutes. The blots were blocked for 1 hour with 5% blocking reagent in TBS-T at room temperature and then washed 3 times with TBS-T (1X−15′; 2X5′ each) and probed with the rabbit polyclonal antibody for Pyruvate Kinase M2 in 5% BSA (NOVUS BIOLOGICALS catalog #H00005315-D01P) at 1:500 dilution overnight at 4 deg C. with shaking. After the overnight incubation with primary antibody for Pyruvate Kinase M2, the membranes were washed 3 times with TBS-T (1X−15′; 2X5′ each) and probed with the secondary antibody (antirabbit; 1:10,000 dilution) for 1 h on the orbital tilting shaker at room temperature. […]

COC1=C(OC)C(=O)C(C/C=C(\C)CC/C=C(\C)CC/C=C(\C)CC/C=C(\C)CC/C=C(\C)CC/C=C(\C)CC/C=C(\C)CC/C=C(\C)CC/C=C(\C)CCC=C(C)C)=C(C)C1=O [Q10, Coenzyme Q10]
apoptosis array genes (ABL1, AKT1, Bcl2L1 ... TNFSF10 as listed) ([1]; 100 uM Q10): modulated by Q10 treatment
genes from the apoptosis array whose expression is regulated ([1]; 100 μM Q10, genes: CASP1, CASP6, TNF, TNFSF10, ABL1, AKT1, BclAF1, Bcl2L1, CASP2, CIDEA, FADD, LTA, TNFSF10A): A list of genes from the apoptosis array whose expression is regulated
genes regulated in the Angiogenesis Arrays [2]: List of genes regulated in the Angiogenesis Arrays
PKM2 expression [3]: dose-dependent decrease in the PKM2 expression
